Patent US20170050957A1, “4-AMINO-6-(HETEROCYCLIC)PICOLINATES AND 6-AMINO-2-(HETEROCYCLIC)PYRIMIDINE-4-CARBOXYLATES AND THEIR USE AS HERBICIDES” (Dow AgroSciences LLC, priority 2013, published 2017)

Tests used:
Type in all cases: in vivo
undesirable vegetation = assay: Herbicidal activity, comparison X is CF with X is CH; conditions: 1.08 and 1.09 vs 1.21 and 1.22; 1.15 and 1.16 vs 1.23 and 1.24; A is A15
[1] = tested on: barnyardgrass (Echinochloa crus-galli); assay: Post-emergent Test I herbicidal activity
Experimental: (§1) Post-emergent Test I Seeds test species were obtained from commercial suppliers and planted into a 5″-round pot containing soil-less media mix (metro-mix 360®, Sun Gro Horticulture). Postemergence treatments were planted 8-12 days prior to application and cultured in a greenhouse equipped with supplemental light sources to provide a 16 h photoperiod at 24-29° C. All pots were surface irrigated. Approximately 10 milligrams (mg) of each compound were dissolved in 1.3 mL acetone-DMSO (97:3, v/v) and diluted with 4.1 mL water-isopropanol-crop oil concentrate (78:20:2, v/v/v) containing 0.02% Triton X-155. Treatments were serial diluted with the above formulation solvent to provide 1.85, 0.926, 0.462 and 0.231 mg/mL of test compound delivered in 2.7 mL/pot (roughly equivalent to 4.0, 2.0, 1.0, and 0.5 kg/ha, respectively). Formulated compounds were applied using a DeVilbiss® compressed air sprayer at 2-4 psi. Following treatment, pots were returned to the greenhouse for the duration of the experiment. All pots were sub-irrigated as need to provide optimum growing conditions. All pots were fertilized one time per week by subirrigating with Peters Peat-Lite Special® fertilizer (20-10-20). Phytotoxicity ratings were obtained 10 days after treatment postemergence applications. All evaluations were made visually on a scale of 0 to 100 where 0 represents no activity and 100 represents complete plant death. Visual assessments of plant injury were made based on growth reduction, discoloration, leaf deformity and necrosis

[2] = tested on: giant foxtail (Setaria faberi); assay: Post-emergent Test I herbicidal activity
Experimental: as §1

[3] = tested on: sunflower (Helianthus annuus); assay: Post-emergent Test I herbicidal activity
Experimental: as §1

wild oats (Avena fatua) = assay: Post-emergent Test I herbicidal activity
Experimental: as §1

In the case of `COC(=O)c1nc(-c2ccc3cc[nH]c3c2F)c(F)c(N)c1Cl` [Compound 1.15, Methyl 4-amino-3-chloro-5-fluoro-6-(7-fluoro-1H-indol-6-yl)picolinate], the “activity when X is CF compared with X is CH” value (undesirable vegetation) is reported as “significant increase in activity”.

In the case of `COC(=O)c1nc(-c2ccc3ccn(C)c3c2)c(F)c(N)c1Cl` [Compound 1.10], the “Visual Growth Reduction (%) 10 Days After Application ECHCG” value ([1]; 3.96 Kg ai/ha) is reported as “G (0-29)”, the “Visual Growth Reduction (%) 10 Days After Application SETFA” value ([2]; 3.96 Kg ai/ha) is reported as “G (0-29)” and the “Visual Growth Reduction (%) 10 Days After Application HELAN” value ([3]; 3.96 Kg ai/ha) is reported as “A (95-100)”. For the same compound, the “Visual Growth Reduction (%) 10 Days After Application AVEFA” value (wild oats (Avena fatua); 3.96 Kg ai/ha) was “G (0-29)”.

With `COC(=O)c1nc(-c2ccc3sccc3c2)cc(N)c1Cl` [Compound 3.05] the “Visual Growth Reduction (%) 10 Days After Application ECHCG” value ([1]; 4 Kg ai/ha) was “A (95-100)”, the “Visual Growth Reduction (%) 10 Days After Application SETFA” value ([2]; 4 Kg ai/ha) was “A (95-100)” and the “Visual Growth Reduction (%) 10 Days After Application HELAN” value ([3]; 4 Kg ai/ha) was “B (85-94)”. For the same compound, the “Visual Growth Reduction (%) 10 Days After Application AVEFA” value (wild oats (Avena fatua); 4 Kg ai/ha) was “C (75-84)”.

For `Nc1c(F)c(-c2cccc3cc[nH]c23)nc(C(=O)O)c1Cl` [Compound 1.48], the “Visual Growth Reduction (%) 10 Days After Application ECHCG” value ([1]; 4 Kg ai/ha) was “G (0-29)”, the “Visual Growth Reduction (%) 10 Days After Application SETFA” value ([2]; 4 Kg ai/ha) was “G (0-29)” and the “Visual Growth Reduction (%) 10 Days After Application HELAN” value ([3]; 4 Kg ai/ha) was “C (75-84)”. The “Visual Growth Reduction (%) 10 Days After Application AVEFA” value (wild oats (Avena fatua); 4 Kg ai/ha) was “G (0-29)”.

`Nc1c(F)c(-c2ccc3cc[nH]c3c2F)nc(C(=O)O)c1Cl` [Compound 1.16, 4-Amino-3-chloro-5-fluoro-6-(7-fluoro-1H-indol-6-yl)picolinic acid] was tested, and the “activity when X is CF compared with X is CH” value (undesirable vegetation) was “significant increase in activity”.

With `COC(=O)c1nc(-c2ccc3cc[nH]c3c2)c(F)c(N)c1Cl` [Compound 1.08] the “activity when X is CF compared with X is CH” value (undesirable vegetation) was “significant increase in activity”.

With `Nc1c(F)c(-c2ccc3cc[nH]c3c2)nc(C(=O)O)c1Cl` [Compound 1.09] the “activity when X is CF compared with X is CH” value (undesirable vegetation) was “significant increase in activity”.
